Data taken from US11517588B2, “Nanoparticle, preparation process and uses thereof” (National Tsing Hua University, priority 2019, dated 2022).

Legend:
[1] = test system: orthotopic HCA-1 HCC tumors; assay: Tissue distribution of DNIC and NO release in tumors; set-up: species or system C3H mice; conditions: mouse, in vivo, iv
Description: ID/g, injected dose per gram. *P=0.0159 compared to Free DNIC. […] Next, NBD-labeled DNIC was used to track the intracellular delivery of free DNIC and NanoNO, and the NO-specific fluorescence probe DAR-1 was used to assess the penetration of NO released from free DNIC and NanoNO in HCC. In FIG. 4F, microphotographs of HCC tumors show DNIC uptake (green) and NO release (red) four hours after intravenous administration of NBD-DNIC loaded in NanoNO or free-form NBD-DNIC (7.5 mg/kg) to mice. 4',6-diamidino-2-phenylindole (DAPI, a fluorescent dye capable of binding strongly to DNA), blue. Scale bar, 50 μm. The experiments were repeated twice independently. […] NO release (red) was detected using DAR-1 in tumors four hours after intravenous administration of NanoNO or free-form DNIC (10 mg/kg) in mice. The arrowheads indicate perivascular NO gradients. Scale bar, 20 μm. The release of NO was imaged and quantified with a Zeiss LSM 780 confocal microscope (n=7 section images from four mice). The experiments were repeated twice independently. The procedure of distribution of NO in the tumor area was as follows. […] Four hours after administration, mice were sacrificed. Tumor tissues were embedded in Tissue-Tek (OCT compound) and immediately frozen in liquid nitrogen. Tumor tissue was sectioned (10 μm thick) onto slides. […]

[2] = Cumulative release of NO, DAR-1 fluorescence probe; assay type: physicochemical; conditions: PBS pH 7.4, 37° C.
Description: The cumulative release of NO from NanoNO over time was assessed using an NO-specific 4,5-diamino-N,N,N′,N′-tetraethylrhodamine (DAR-1) fluorescence probe.
The release profile of NO from free DNIC or NanoNO was investigated at pH 7.4 at 37° C. Briefly, free DNIC and NanoNO were suspended with PBS buffer. DAR-1 at a final concentration of 20 μM was added to the solution and then incubated at 37° C. on a 200 rpm orbital shaker. At different time points, the solution was harvested, and the fluorescence intensity (excitation at 560 nm, emission at 595 nm) was measured using a microplate reader (Spark 10M, Tecan, Germany).
FIG. 3 is a data diagram of the effect of NanoNO on the cumulative release of nitric oxide. NO release from free-form DNIC and NanoNO under physiological conditions (pH of 7.4). Free-form DNIC and NanoNO were incubated in PBS buffer at pH 7.4, and the release of NO was measured as the fluorescence intensity (excitation at 560 nm and emission at 595 nm) of the NO-specific probe DAR-1. The results are expressed as a fold change compared to time 0 (free DNIC, n=5; NanoNO; n=4 independent samples). *P=0.0159 compared to free DNIC. FL: fluorescence intensity.

[3] = mouse, in vivo, iv
Description: The pharmacokinetics and biodistribution of NanoNO in orthotopic murine HCC models generated using HCA-1 were evaluated.
The procedure of pharmacokinetic and tissue distribution study was as follows. C3H/HeNCrNarl male mice with orthotopic implants of HCA-1 cells were injected intravenously with free DNIC (10 mg/kg) or NanoNO (7.5 mg/kg). At different time points, 200 μL of blood was collected from the orbital sinus and mixed with 50 μL of 1000 U/mL heparin (Sigma, USA). For evaluation of tissue distribution, four hours after administration, the mice were sacrificed. The tissues were collected and homogenized in lysis buffer (10 mM Tris-HCl, 1% Triton X-100, 0.1% SDS, 0.1% SDC and 140 mM NaCl). The tissue lysates were kept on ice for 30 min and centrifuged at 25,001 rcf at 4° C. for 30 min, and the supernatants were collected. The DNIC signal was measured by electron paramagnetic resonance (EPR plus, Bruker, Germany). HSCH2CH2OH (1 mM) was added to the serum or tissue lysates to transform all the DNICs into the EPR-active form for analysis. The DNIC concentration was calculated according to a standard curve obtained by the amounts of DNIC or NanoNO.
Non-compartmental analysis was employed for the pharmacokinetic parameter analysis. AUC, area under the curve; CL, clearance; h, hour; t1/2, half-life; Vss, steady state volume of distribution.

HCA-1 cells [4] = assay: EMT phenotype under hypoxic conditions, qRT-PCR; assay type: cell-based, murine; conditions: hypoxic conditions (1% oxygen), 24 h, dose-dependent manner
Description: The mRNA level was determined by qRT-PCR 24 h after treatment with free DNIC at different doses (control and hypoxia, n=3; 0.5 and 1 μM DNIC, n=5; 5 μM DNIC, n=6 biologically independent samples).

SP1 = SP1 luciferase reporter; assay type: cell-based, murine; conditions: free-form DNIC 0.5 μM, 24 h, HCA-1 cells
Description: The procedure of DNIC triggered activation of SP1 in HCA-1 HCC cells was as follows. HCA-1 cells expressing SP1 reporter (Qiagen, Germany) were established by transfection using Lipofectamine® 2000 (Thermo Fisher Scientific, USA). The cells were then treated with free-form DNIC. After 24 h incubated, the cells were lysed and luciferase signal was measured by microplate reader (Spark 10M, Tecan, Germany).
Data are pooled from two independent experiments. […] Analysis was performed using two-tailed Mann-Whitney U test.

[5] = pH 7.4
Description: Free DNIC and NanoNO were suspended with PBS buffer or acetic buffer (pH 4.0 or 5.5) and then incubated at 37° C. in a 200 rpm Orbital Shaker. At different time points, the solution was harvested, dissolved in DMSO and analysed by a UV spectrophotometer at 360 nm.
The kinetic profile for the decomposition of DNIC and the concomitant release of NO from NanoNO were evaluated under physiological and acidic pH conditions at 37° C. […] Free-form DNIC and NanoNO were incubated in a PBS buffer or acetic buffer at a pH of 4.0-7.4, and DNIC destruction was measured using a UV spectrophotometer at 360 nm (n=5 independent samples). The results are expressed as percentage of the initial DNIC. **P=0.0094 and ***P=0.0004 compared to NanoNO at a pH of 7.4.
Free-form DNIC and NanoNO were incubated in PBS containing 10% fetal bovine serum at 37° C. DNIC destruction was measured using a UV spectrophotometer at 360 nm. The results are expressed as the percentage of the initial DNIC (n=3 samples). All data are shown as the mean value± the s.e.m.

HCA-1 cells [6] = assay: Invasion and wound healing assays; assay type: cell-based, murine; conditions: 72 h after treatment
Description: The procedure of transwell invasion assay was as follows. Cell invasion was examined using a QCM ECMatrix 24-well Cell Invasion Assay (EMD Millipore, USA). HCA-1 cells were seeded in the top chamber without serum. DMEM-H containing 10% FBS was added to the lower chamber. Following incubation for 72 h, the cells on the lower surface were fixed with 4% paraformaldehyde (PFA, in PBS). The chambers were rinsed in PBS and stained with 1% crystal violet (in 90% ethanol) for 30 min. For each experimental condition, 10 image fields were photographed by microscopy (IX83, Olympus, Japan) and quantified.
FIGS. 7A and 7B show free-form DNIC modulates the TME in metastatic lesions and suppresses metastatic progression of HCC. 7A-7B, Invasion (7A) and wound healing assays (7B) of HCA-1 cells were performed 72 h after treatment with free DNIC at different doses. The experiments were repeated twice independently.

HUVECs = assay: Expression of pro-angiogenic and vessel stabilizing factors, RT-qPCR; assay type: cell-based, human; conditions: DNIC 1 μM, 24 h
From the text: (§1) The procedure of reverse transcription quantitative real time PCR was as follows. Total RNA was extracted from HUVECs or flow-sorted tumor-associated macrophages using the RNeasy Mini Kit (Qiagen, Calif., USA). cDNAs were synthesized using the High-Capicity cDNA Reverse Transcription Kit (Applied Biosystems, Calif., USA). Primers specific for Arignase-1, CCL17, CCL22, IL10, MRC1, CXCL9, IL-1β, TNF-α, CXCL-11, NOS2, NOS3, Snail, Slug, Zeb1, Zeb2, Trim28, Fibronectin, Vimentin, E-cadherin, PD-L1, S1PR1, ANGPT1, PDGF-B, VEGFA, ANGPT2, EGF, IL-6, PPARγ, TGFβ, GAPDH and β-actin were used (Table 2), and relative gene expression was determined using Real-Time SYBR Green PCR Master Mix (Applied Biosystems, Calif., USA) on a QPCR System. The comparative threshold cycle method was used to calculate fold change in gene expression, which was normalized to β-actin.
NO acts as a crucial modulator in regulating angiogenesis and maintaining the vasculature function in TME. […]
FIG. 5A is a data diagram of normalized tumor blood vessels in HCC by low-dose NanoNO. Expression of the pro-angiogenic and vessel stabilizing factors in HUVECs 24 h after treatment with DNIC (1 μM) measured by RT-qPCR. The results are expressed as the fold change relative to the untreated control group (n=9 biologically independent samples). […]

Macrophage = Macrophage polarization after treatment of DNIC in vitro (qPCR); assay type: cell-based, human
From the text: The murine hepatocellular carcinoma (HCC) cell line HCA-1 and the human HCC cell lines JHH-7, Hep3B and human lung fibroblasts (HLF) were provided by Dr. Dan Duda (Massachusetts General Hospital, Boston). The human HCC cell line Mahlavu was provided by Dr. Han-Chung Wu (Academia Sinica, Taiwan). The human monocyte cell line THP-1 (ATCC® TIB-202™) was purchased from ATCC. HUVECs (BCRC H-UV001) were obtained from the Bioresource Collection and Research Center, Food Industry Research and Development Institute (Hsinchu, Taiwan). Cell lines were authenticated and tested for mycoplasma. HCA-1 and Mahlavu cells were cultured in high-glucose Dulbecco's modified Eagle's medium (DMEM); JHH-7 and HLF cells were cultured in DMEM/F12 medium; Hep3B cells were cultured in Minimum Essential Medium Alpha (MEMα) (Sigma-Aldrich, St. Louis, Mo.); THP-1 cells were maintained in RPMI-1640 (Corning, N.Y.). All media were supplemented with 10% fetal bovine serum (FBS) and 1% antibiotics (penicillin and streptomycin, HyClone, Logan, Utah). The HUVECs were cultured in Medium 199 (Sigma-Aldrich, St. Louis, Mo.) containing 20% FBS, ECGS (30 μg/mL), heparin (25 U/mL) and L-glutamine (2 mM). THP-1 cells were differentiated into macrophages by 72 h incubation with 20 ng/mL phorbol 12-myristate 13-acetate (PMA, Sigma-Aldrich, St. Louis, Mo.).
as §1

PD-L1 = PD-L1 mRNA and protein expression in HCC cells in vitro; assay type: cell-based, murine and human; conditions: dose-dependent manner
Description: The procedure of Western blot analysis was as follows. Cells or tissue were lysed in RIPA lysis buffer. Cell lysates were separated on a 10% acrylamide gel and transferred to a PVDF membrane. Membranes were blocked for 1 h in 5% skim milk and then incubated overnight with polyclonal antibodies against PD-L1 and R-actin (clone 122M4782, Cell Signaling, Danvers, Mass.).
FIG. 6F is a data diagram showing reprogramming of tumor microenvironment by NanoNO. FIG. 6G is a Western blot staining diagram showing reprogramming of tumor microenvironment by NanoNO. PD-L1 mRNA and protein expression in HCA-1 cells was analysed by qRT-PCR (n=3 biologically independent samples) (FIG. 6F) and Western blot analysis (FIG. 6G) After treatment with free-form DNIC in vitro. The experiments were repeated twice independently.

- CL [3]: 0.46 mL/min/kg
- Vss [3]: 0.0327 L/kg
- t1/2 [3]: 1.27 h
- SP-1 luciferase activity (SP1): significantly decreased
- half-life of DNIC (DNIC destruction) [5]: 3.9 ± 1.5 h
Compound: O=[N][Fe]1([N]=O)[S](CCO)[Fe]([N]=O)([N]=O)[S]1CCO [Free DNIC, Fe(μ-SCH2CH2OH)2(NO)4]
- accumulation of DNIC in HCC tumors [1]: poorly delivered and accumulated in the tumor
- in vitro release of NO [2]: proceeded at a rapid rate during the first two hours
- EMT markers and E-cadherin expression (HCA-1 cells [4]): prevented the increase in epithelial-mesenchymal transition (EMT) markers
- migration and invasion of HCA-1 cells (HCA-1 cells [6]): significantly inhibited the migration and invasion
- expression of pro-angiogenic genes (VEGF, ANGPT2, and EGF) (HUVECs): downregulated
- expression of vessel maturation-related genes (S1PR1 and ANGPT1) (HUVECs): significantly upregulated
- macrophage polarization in vitro (Macrophage): did not directly affect macrophage polarization
- Gene expression Arg-1 (M2 type) (Macrophage; DNIC 0.5 μM): 1.08 ± 0.26
- Gene expression CCL-17 (M2 type) (Macrophage; DNIC 0.5 μM): 1.06 ± 0.13
- Gene expression CCL-22 (M2 type) (Macrophage; DNIC 0.5 μM): 0.96 ± 0.11
- Gene expression CXCL-9 (M1 type) (Macrophage; DNIC 0.5 μM): 1.22 ± 0.17
- Gene expression CXCL-11 (M1 type) (Macrophage; DNIC 0.5 μM): 2.02 ± 0.79
- Gene expression IL-1b (M1 type) (Macrophage; DNIC 0.5 μM): 1.13 ± 0.07
- Gene expression IL-6 (M1 type) (Macrophage; DNIC 0.5 μM): 1.16 ± 0.03
- Gene expression MRC1 (M2 type) (Macrophage; DNIC 0.5 μM): 1.00 ± 0.17
- Gene expression PPARγ (M2 type) (Macrophage; DNIC 0.5 μM): 0.92 ± 0.05
- Gene expression TGF-β (M2 type) (Macrophage; DNIC 0.5 μM): 1.11 ± 0.06
- Gene expression TNF-α (M1 type) (Macrophage; DNIC 0.5 μM): 0.95 ± 0.08
- Gene expression iNOS (M1 type) (Macrophage; DNIC 0.5 μM): 1.10 ± 0.35
- Gene expression Arg-1 (M2 type) (Macrophage; DNIC 1 μM): 1.27 ± 0.28
- Gene expression CCL-17 (M2 type) (Macrophage; DNIC 1 μM): 1.19 ± 0.27
- Gene expression CCL-22 (M2 type) (Macrophage; DNIC 1 μM): 1.07 ± 0.22
- Gene expression CXCL-9 (M1 type) (Macrophage; DNIC 1 μM): 1.22 ± 0.53
- Gene expression CXCL-11 (M1 type) (Macrophage; DNIC 1 μM): 1.85 ± 0.72
- Gene expression IL-1b (M1 type) (Macrophage; DNIC 1 μM): 1.21 ± 0.04
- Gene expression IL-6 (M1 type) (Macrophage; DNIC 1 μM): 1.27 ± 0.08
- Gene expression IL-10 (M2 type) (Macrophage; DNIC 1 μM): 1.22 ± 0.14
- Gene expression MRC1 (M2 type) (Macrophage; DNIC 1 μM): 1.19 ± 0.16
- Gene expression PPARγ (M2 type) (Macrophage; DNIC 1 μM): 0.91 ± 0.13
- Gene expression TGF-β (M2 type) (Macrophage; DNIC 1 μM): 0.95 ± 0.03
- Gene expression TNF-α (M1 type) (Macrophage; DNIC 1 μM): 0.94 ± 0.11
- Gene expression iNOS (M1 type) (Macrophage; DNIC 1 μM): 0.93 ± 0.47
- PD-L1 expression in murine and human HCC cells in vitro (PD-L1): significantly reduced PD-L1 expression
